Source: patent US20240199624A1, “COMPOUNDS, COMPOSITIONS, AND METHODS” (CHDI Foundation, Inc., priority 2022, published 2024)
pIC50: −log10 of the molar value.

How the values were obtained:
Assay type in all cases: biochemical
human MutSbeta [1] = target: T1, human MutSbeta (Homo sapiens, UniProt P20585+P43246); test: ADP Glo assay 2.2; conditions: as 2.1 but buffer with 2 mM GSH
T1 construct: Msh2(1-934), Gene ID NP_000242.1; Msh3(1-1137), Gene ID J04810.1
Description: (§1) ADP Glo assay 2.1: Enzyme human MutSbeta (Msh2(1-934), Gene ID NP_000242.1, Msh3(1-1137), Gene ID J04810.1) with 22 bp biotin-labeled DNA containing a GT-mismatch (purchased from Curia Global, TOP 5′-[…]-3′; BOT 3′-AGTAGCTAGGC - - - CGAAGTCTACC-5′-Biotin) was pre-incubated in assay buffer (25 mM HEPES pH=7.5, 150 mM KCl, 5 mM MgCl2, 5 mM GSH, 0.1% Pluronic F-127, 0.2% Ovalbumin) to allow formation of the enzyme-DNA complex. Plates with spotted compounds in serial dilutions in DMSO (80 nL) were filled with ATP (2 μL, 10 μM final concentration) followed by an incubation of 30 min at RT. Then, enzyme was added (2 μL, 7 nM final concentration) and the reaction was allowed to proceed for 60 min at 37° C. After the ATPase reaction, the commercially available “ADP-Glo Reagent” was added (incubate 40 min at RT) to deplete remaining ATP via the activity of […]. Subsequently, the commercially available “Kinase Detection Reagent” converted ADP to ATP via the activity of PEP and Pyruvate kinase. The ATP was then converted into light by Ultra-Glo Luciferase. The obtained luminescence was proportional to the ADP concentration generated during the initial ATPase reaction. The luminescence signal was measured with an Envision reader, raw data were analyzed towards controls (full reaction=0% inhibition; no reaction in absence of enzyme=100% inhibition) and IC50 curves were analyzed with the inhouse software Aplus.
ADP Glo assay 2.2: A similar protocol was used as in the ADP Glo Assay 2.1 above, except the following assay buffer was used: 25 mM HEPES pH=7.5, 150 mM KCl, 5 mM MgCl2, 2 mM GSH, 0.1% Pluronic F-127, 0.2% Ovalbumin. It is contemplated the solubility of the compounds and/or varying test occasions and/or assay conditions may account for variability of assay results.

human MutSbeta [2] = target: T1, human MutSbeta; test: P33 SPA 1.1
Description: P33 SPA: Enzyme human MutSbeta (Msh2(1-934), Gene ID NP_000242.1, Msh3(1-1137), Gene ID J04810.1) and 22 bp biotin-labeled DNA containing a GT-mismatch (purchased from Curia Global, TOP 5′-[…]-3′; BOT 3′-AGTAGCTAGGC - - - CGAAGTCTACC-5′-Biotin) were pre-incubated at equimolar concentration for 15 min at room temperature (“RT”) in assay buffer (25 mM HEPES pH=7.5, 150 mM KCl, 2 mM MgCl2, 2 mM GSH, 0.01% Tween-20). ATP (10 μL, 2× final concentration of γ-[^33P]-ATP (final 0.1 nM; Hartmann Analytic, FF-301) and cold ATP (final 2 μM)) was added to compounds (400 nL spotted as concentration response in 100% DMSO into wells of an OptiPlate) and pre-incubated for 30 min at RT. Then, enzyme with DNA was added (10 μL, 2× final concentration of 7 nM) and incubated for 60 min at 37° C. in a total volume of 20 μL per well. Decay of [^33P] with a half-life of 25.4 days was corrected by increasing the concentration of the labelled nucleotide with the appropriate factor; all steps with radioactive ATP were conducted behind appropriate shielding. Then, 20 μL of a 1:2 mix of ammonium molybdate (20 mg/mL Ammonium molybdate in 2.4 M HCl) and SPA beads (ProteinA SPA beads from Perkin Elmer Cat #RPNQ0019 at 7.5 mg/mL+1% azide) was added per well and incubated at RT for 2 min. Then, 40 μL of 7 M CsCl and 0.1 M citrate was added per well and incubated for 20 h at RT before measuring on the MicroBeta (top read mode, 1 min per well). For full plate processing, all reagents were transferred with a pipettor (Selma, CyBio) apart from the final reagent (CsCl+citrate) which was added with a dispenser (MultiFlo, BioTek). Data analysis during assay development was done with Prism GraphPad.
P33 SPA 11: For the SPA 1.1 assay, the addition of reagents was reversed, i.e. enzyme was first added to the compounds and pre-incubated followed by ATP addition; thus, the assay was aligned with ADP Glo 1.1 reagent addition order. The assay was repeated under similar conditions, and the results are shown below in Table 5B. It is contemplated the solubility of the compounds and/or varying test occasions may account for variability of assay results.

human MutSbeta [3] = target: T1, human MutSbeta; test: ADP Glo assay 2.1; conditions: 10 μM ATP, 7 nM enzyme; buffer with 5 mM GSH, 0.2% Ovalbumin
Description: as §1

[4] = Table 5A, enzyme first added to compounds, then ATP
[5] = Table 5B, assay repeated under similar conditions

T1 sequence (P43246 whole entry): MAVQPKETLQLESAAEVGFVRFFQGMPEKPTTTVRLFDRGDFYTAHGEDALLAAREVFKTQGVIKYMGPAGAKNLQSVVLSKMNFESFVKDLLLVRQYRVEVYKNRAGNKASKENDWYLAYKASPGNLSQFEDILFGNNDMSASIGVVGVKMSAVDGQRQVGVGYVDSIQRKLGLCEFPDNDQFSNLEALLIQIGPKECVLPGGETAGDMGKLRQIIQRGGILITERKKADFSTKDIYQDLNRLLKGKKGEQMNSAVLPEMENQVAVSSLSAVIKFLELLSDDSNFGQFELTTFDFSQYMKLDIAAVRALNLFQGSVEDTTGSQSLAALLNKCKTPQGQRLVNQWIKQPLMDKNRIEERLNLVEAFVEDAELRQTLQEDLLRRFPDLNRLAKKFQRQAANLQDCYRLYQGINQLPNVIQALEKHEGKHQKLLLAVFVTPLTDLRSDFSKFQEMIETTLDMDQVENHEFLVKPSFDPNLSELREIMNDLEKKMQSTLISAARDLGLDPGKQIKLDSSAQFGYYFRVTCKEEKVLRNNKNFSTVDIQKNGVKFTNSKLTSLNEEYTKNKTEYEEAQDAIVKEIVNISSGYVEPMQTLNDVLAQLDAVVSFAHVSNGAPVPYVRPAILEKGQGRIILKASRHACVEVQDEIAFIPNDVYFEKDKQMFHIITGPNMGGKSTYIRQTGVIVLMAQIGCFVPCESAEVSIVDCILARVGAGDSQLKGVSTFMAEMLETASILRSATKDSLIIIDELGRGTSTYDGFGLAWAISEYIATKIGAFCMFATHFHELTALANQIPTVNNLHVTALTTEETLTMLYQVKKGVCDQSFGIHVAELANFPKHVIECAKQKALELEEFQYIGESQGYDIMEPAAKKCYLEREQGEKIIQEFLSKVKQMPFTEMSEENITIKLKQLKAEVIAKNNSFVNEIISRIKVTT
T1 sequence (P20585 whole entry): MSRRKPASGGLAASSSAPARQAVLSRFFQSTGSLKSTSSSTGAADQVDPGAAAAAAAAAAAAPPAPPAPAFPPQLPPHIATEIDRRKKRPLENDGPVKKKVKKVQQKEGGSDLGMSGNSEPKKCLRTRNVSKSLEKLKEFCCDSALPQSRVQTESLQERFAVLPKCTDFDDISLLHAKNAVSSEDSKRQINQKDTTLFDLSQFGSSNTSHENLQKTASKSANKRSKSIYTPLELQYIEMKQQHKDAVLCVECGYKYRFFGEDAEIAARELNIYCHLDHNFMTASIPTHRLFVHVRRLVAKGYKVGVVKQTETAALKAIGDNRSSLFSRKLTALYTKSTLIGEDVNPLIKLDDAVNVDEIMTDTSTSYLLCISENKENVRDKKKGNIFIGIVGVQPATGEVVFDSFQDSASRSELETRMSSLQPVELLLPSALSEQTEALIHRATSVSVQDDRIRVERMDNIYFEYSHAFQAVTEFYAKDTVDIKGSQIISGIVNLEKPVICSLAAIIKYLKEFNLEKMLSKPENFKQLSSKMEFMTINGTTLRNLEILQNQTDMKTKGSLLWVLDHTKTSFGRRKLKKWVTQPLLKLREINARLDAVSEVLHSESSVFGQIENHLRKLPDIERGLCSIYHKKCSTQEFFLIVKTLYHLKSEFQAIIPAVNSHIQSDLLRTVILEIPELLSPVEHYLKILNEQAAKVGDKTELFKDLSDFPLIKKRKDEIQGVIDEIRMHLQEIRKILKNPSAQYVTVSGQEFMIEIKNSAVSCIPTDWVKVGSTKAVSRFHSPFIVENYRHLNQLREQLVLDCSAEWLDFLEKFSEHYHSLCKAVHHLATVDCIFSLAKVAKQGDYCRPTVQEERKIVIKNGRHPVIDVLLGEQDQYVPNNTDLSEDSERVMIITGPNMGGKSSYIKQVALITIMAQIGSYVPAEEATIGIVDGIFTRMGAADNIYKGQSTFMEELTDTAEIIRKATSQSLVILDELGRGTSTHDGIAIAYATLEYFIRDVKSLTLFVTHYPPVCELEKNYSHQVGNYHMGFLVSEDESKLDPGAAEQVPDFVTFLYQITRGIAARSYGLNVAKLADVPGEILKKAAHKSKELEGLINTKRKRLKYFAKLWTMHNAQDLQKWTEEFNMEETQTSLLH

pIC50 (human MutSbeta [1])	pIC50 (human MutSbeta [2]; [4])	pIC50 (human MutSbeta [2]; [5])	pIC50 (human MutSbeta [3])	Compound
4.42	4.23	4.25	4.26	CN1CCN(c2nc(Nc3cccc(C4CC4C(=O)O)c3)c3nccnc3n2)CC1 (single isomer, unassigned) [Compound 47]
4.57	4.92	5.05	4.89	CN1CCN(c2nc(Nc3cccc(C4CC4C(=O)O)c3)c3nccnc3n2)CC1 (single isomer, unassigned) [Compound 48]
–	4.15	4.19	≤ 3.70	Cc1ccc(Nc2nc(N3CCCN(C)CC3)nc3nccnc23)cc1C [Compound 23, N-(3,4-dimethylphenyl)-2-(4-methyl-1,4-diazepan-1-yl)pteridin-4-amine]
4.22	4.62	4.60	4.43	Cc1ccc(Nc2nc(N3CCN(C(C)C)CC3)nc3nccnc23)cc1C [Compound 24]
4.46	4.70	4.62	4.54	Cc1cc(CNc2nc(N3CCN(C)CC3)nc3nccnc23)ccc1F [Compound 25]
4.02	4.23	4.12	4.44	Cc1cc(CNc2nc(N3CCN(C(C)C)CC3)nc3nccnc23)ccc1F [Compound 26]
4.59	4.55	4.74	4.66	Cc1ccc(CNc2nc(N3CCN(C)CC3)nc3nccnc23)cc1C [Compound 27]
4.09	4.26	3.88	4.42	Cc1ccc(CNc2nc(N3CCCN(C)CC3)nc3nccnc23)cc1C [Compound 28]
–	3.92	4.21	≤ 3.70	Cc1cc(CNc2nc(N3CCCN(C)CC3)nc3nccnc23)ccc1F [Compound 29]
4.60	4.64	4.55	4.64	COc1ccc(Nc2nc(N3CCN(C)CC3)nc3nccnc23)cc1Cl [Compound 30]
4.39	4.60	4.35	4.72	Cc1ccc(Nc2nc(N3CCN(C)[C@@H](C)C3)nc3nccnc23)cc1C [Compound 31]
–	3.93	4.33	≤ 3.70	Cc1ccc(Oc2nc(N3CCN(C)CC3)nc3nccnc23)cc1C [Compound 32]
4.37	4.36	4.47	4.46	CN1CCN(c2nc(Nc3cccc(Cl)c3)c3nccnc3n2)CC1 [Compound 33, N-(3-chlorophenyl)-2-(4-methylpiperazin-1-yl)pteridin-4-amine]
–	4.37	4.05	≤ 3.70	CN1CCN(c2nc(Nc3cccc(F)c3)c3nccnc3n2)CC1 [Compound 34]
–	4.10	4.26	≤ 3.70	CCC(=O)Nc1cccc(Nc2nc(N3CCCN(C)CC3)nc3nccnc23)c1 [Compound 35]
4.01	4.47	3.92	4.15	CCC(=O)Nc1cccc(Nc2nc(N3CCN(C)CC3)nc3nccnc23)c1 [Compound 37]
5.00	4.72	5.02	4.89	Cc1cnc2nc(N3CCN(C)CC3)nc(Nc3ccc(C)c(C)c3)c2n1 [Compound 38, N-(3,4-dimethylphenyl)-6-methyl-2-(4-methylpiperazin-1-yl)pteridin-4-amine]
–	3.80	4.44	≤ 3.70	Cc1cccc(Nc2nc(N3CCN(C)CC3)nc3nccnc23)c1C [Compound 39, N-(2,3-dimethylphenyl)-2-(4-methylpiperazin-1-yl)pteridin-4-amine]
4.47	4.37	4.21	4.80	COc1cccc(Nc2nc(N3CCN(C)CC3)nc3nccnc23)c1 [Compound 40]
4.30	–	4.30	4.55	Cc1cc(Nc2nc(N3CCN(C)CC3)nc3nccnc23)ccc1C(N)=O [Compound 41]
3.92	–	3.97	≤ 3.70	CN1CCN(c2nc(NCc3cccc(S(C)(=O)=O)c3)c3nccnc3n2)CC1 [Compound 42]
3.97	–	4.23	–	Cc1ccc(Nc2nc(N3CCN(C)CC3)nc3nccnc23)cc1S(N)(=O)=O [Compound 43]
4.06	–	4.15	–	CN1CCN(c2nc(NCc3cccc(S(N)(=O)=O)c3)c3nccnc3n2)CC1 [Compound 44]
4.12	4.42	4.08	4.26	Cc1ccc(Nc2nc(N3CCN(C)CC3)nc3nccnc23)cc1C(N)=O [Compound 45]
4.28	3.98	3.92	4.42	CC(=O)Nc1cccc(CNc2nc(N3CCN(C)CC3)nc3nccnc23)c1 [Compound 46]
